Laboratory results as given in ChEMBL document CHEMBL1201862, “PubChem BioAssay data set” (2004).
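Compound exposure: 48 hours, 5 concentrations, 96-well plates. Abbreviation: GI50, concentration required for 50% inhibition of growth.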 Calls of active or inactive are those of the source. Cut-off read from the data, not from the text of the source: active = GI50 up to about 1.1 µM and inactive = higher.

Assays:
Assay in all cases: NCI-60 cell line screen, 48 h
[1] = test system: NCI-H522
[2] = test system: Hs-578T
[3] = test system: OVCAR-8
[4] = test system: NCI/ADR-RES
[5] = test system: CCRF-CEM
[6] = test system: MDA-MB-231
[7] = test system: T47D
[8] = test system: UO-31
[9] = test system: HCT-116
[10] = test system: DU-145
[11] = test system: IGROV-1
[12] = test system: SF-295
[13] = test system: MCF7
[14] = test system: PC-3
[15] = test system: SNB-19
[16] = test system: 786-0
[17] = test system: DMS-114
[18] = test system: M19-MEL
[19] = test system: KM-20L2
[20] = test system: LXFL 529

| Structure (SMILES) | GI50 [1] | GI50 [2] | GI50 [3] | GI50 [4] | GI50 [5] | GI50 [6] | GI50 [7] | GI50 [8] | GI50 [9] | GI50 [10] | GI50 [11] | GI50 [12] | GI50 [13] | GI50 [14] | GI50 [15] | GI50 [16] | GI50 [17] | GI50 [18] | GI50 [19] | GI50 [20] |
| --- | --- | --- | --- | --- | --- | --- | --- | --- | --- | --- | --- | --- | --- | --- | --- | --- | --- | --- | --- | --- |
| CCCCSCCC(N)P(=O)(O)O (stereo unspecified) | > 100 µM (inactive) | > 100 µM (inactive) | > 100 µM (inactive) | > 100 µM (inactive) | > 100 µM (inactive) | > 100 µM (inactive) | > 100 µM (inactive) | > 100 µM (inactive) | > 100 µM (inactive) | > 100 µM (inactive) | > 100 µM (inactive) | > 100 µM (inactive) | > 100 µM (inactive) | > 100 µM (inactive) | > 100 µM (inactive) | – | – | – | – | – |
| c1ccc(C2=NNC3c4ccccc4-c4ccccc4N3C2)cc1 (stereo unspecified) | 26.1 µM (inactive) | 34.8 µM (inactive) | 33.8 µM (inactive) | 31.8 µM (inactive) | – | 26 µM (inactive) | 23.5 µM (inactive) | 32.4 µM (inactive) | 34 µM (inactive) | 40.5 µM (inactive) | 31.6 µM (inactive) | 35.6 µM (inactive) | 14.7 µM (inactive) | 23.7 µM (inactive) | 40 µM (inactive) | 50 µM (inactive) | – | – | – | – |
| O=S(=O)(c1ccc(I)cc1)N(c1ccccc1)S(=O)(=O)C(F)(F)C(F)(F)C(F)(F)C(F)(F)F | 28.2 µM (inactive) | 30.2 µM (inactive) | 48 µM (inactive) | 43.3 µM (inactive) | 40.9 µM (inactive) | 23 µM (inactive) | 35.5 µM (inactive) | 55.8 µM (inactive) | 19.9 µM (inactive) | 46.7 µM (inactive) | > 100 µM (inactive) | 24 µM (inactive) | 26.9 µM (inactive) | 38.7 µM (inactive) | 74.3 µM (inactive) | 45.7 µM (inactive) | – | – | – | – |
| COc1cccc(CCn2c(N)c(-c3cc(Cl)cc(Cl)c3)c3ccc([N+](=O)[O-])cc3c2=O)c1 | 2.92 µM (inactive) | 3.19 µM (inactive) | 3.81 µM (inactive) | 3.27 µM (inactive) | 0.787 µM (active) | 4.68 µM (inactive) | 2.78 µM (inactive) | 2.68 µM (inactive) | 2.84 µM (inactive) | 2.7 µM (inactive) | 3.33 µM (inactive) | 3.73 µM (inactive) | 4.62 µM (inactive) | 3.1 µM (inactive) | 3.21 µM (inactive) | 4.91 µM (inactive) | – | – | – | – |
| NCCCCCC(CCN)SCC1OC(n2cnc3c(N)ncnc32)C(O)C1O (stereo unspecified) | 822 µM (inactive) | – | > 708 µM (inactive) | > 948 µM (inactive) | 891 µM (inactive) | – | – | 394 µM (inactive) | 233 µM (inactive) | – | 1180 µM (inactive) | 469 µM (inactive) | > 1500 µM (inactive) | – | 615 µM (inactive) | – | 339 µM (inactive) | > 843 µM (inactive) | 482 µM (inactive) | – |
| CCc1n[nH]c(=O)n1CC | > 100 µM (inactive) | > 100 µM (inactive) | > 100 µM (inactive) | > 100 µM (inactive) | > 100 µM (inactive) | > 100 µM (inactive) | > 100 µM (inactive) | > 100 µM (inactive) | > 100 µM (inactive) | > 100 µM (inactive) | > 100 µM (inactive) | > 100 µM (inactive) | > 100 µM (inactive) | – | > 100 µM (inactive) | > 100 µM (inactive) | – | – | – | – |
| COc1ccccc1-c1cc(O)c2cc(C)cnc2n1 | 17.2 µM (inactive) | 43.4 µM (inactive) | 66.2 µM (inactive) | 15 µM (inactive) | 17.2 µM (inactive) | 67.3 µM (inactive) | 63.4 µM (inactive) | 47.9 µM (inactive) | – | 47.9 µM (inactive) | 16.4 µM (inactive) | – | 47.5 µM (inactive) | – | 71.9 µM (inactive) | – | – | – | – | – |
| COc1ccc(-c2cc(-c3ccccc3)c3c(n2)-c2ccccc2NC(=O)C3)cc1 | – | 5.15 µM (inactive) | 9.66 µM (inactive) | 36.5 µM (inactive) | – | 25.4 µM (inactive) | 74 µM (inactive) | > 100 µM (inactive) | 25.5 µM (inactive) | > 100 µM (inactive) | 13.8 µM (inactive) | 47.5 µM (inactive) | 39.4 µM (inactive) | 28.3 µM (inactive) | 34.7 µM (inactive) | 29 µM (inactive) | – | – | – | – |
| Cc1[nH]c(=O)[nH]c(=O)c1/C=C/C(=O)NC(CO)CC(C)C (stereo unspecified) | 114 µM (inactive) | – | 160 µM (inactive) | > 375 µM (inactive) | 181 µM (inactive) | – | – | > 375 µM (inactive) | 322 µM (inactive) | – | > 375 µM (inactive) | > 375 µM (inactive) | 228 µM (inactive) | – | 356 µM (inactive) | – | 260 µM (inactive) | 322 µM (inactive) | 88.1 µM (inactive) | – |
| CC(=O)N1CN2C(=O)CCC2c2ccccc21 (stereo unspecified) | > 100 µM (inactive) | > 100 µM (inactive) | > 100 µM (inactive) | > 100 µM (inactive) | > 100 µM (inactive) | > 100 µM (inactive) | > 100 µM (inactive) | > 100 µM (inactive) | > 100 µM (inactive) | > 100 µM (inactive) | > 100 µM (inactive) | > 100 µM (inactive) | > 100 µM (inactive) | > 100 µM (inactive) | > 100 µM (inactive) | > 100 µM (inactive) | – | – | – | – |
| O=NN(CC1(O)OCC(O)C(O)C1O)C(Cc1c[nH]c2ccccc12)C(=O)O (stereo unspecified) | > 100 µM (inactive) | – | > 100 µM (inactive) | – | > 100 µM (inactive) | – | – | > 10 µM (inactive) | > 100 µM (inactive) | – | > 100 µM (inactive) | – | – | – | – | > 100 µM (inactive) | > 100 µM (inactive) | > 100 µM (inactive) | > 100 µM (inactive) | – |
| O=C(CC1Sc2ccccc2NC1=O)Nc1ccccc1[N+](=O)[O-] (stereo unspecified) | 17.1 µM (inactive) | – | > 100 µM (inactive) | – | > 100 µM (inactive) | – | – | > 100 µM (inactive) | > 100 µM (inactive) | – | > 100 µM (inactive) | > 100 µM (inactive) | – | – | > 100 µM (inactive) | – | – | > 100 µM (inactive) | > 100 µM (inactive) | > 100 µM (inactive) |
| O=C(O)Cc1ccc(N2N=C(c3ccccc3)CC2=O)cc1 | > 100 µM (inactive) | > 100 µM (inactive) | > 100 µM (inactive) | > 100 µM (inactive) | > 100 µM (inactive) | > 100 µM (inactive) | > 100 µM (inactive) | > 100 µM (inactive) | > 100 µM (inactive) | > 100 µM (inactive) | > 100 µM (inactive) | > 100 µM (inactive) | > 100 µM (inactive) | > 100 µM (inactive) | > 100 µM (inactive) | – | – | – | – | – |
| COc1cccc(CC2Cc3ccccc3CC(=O)N2)c1 (stereo unspecified) | – | 21.4 µM (inactive) | 53.8 µM (inactive) | 20 µM (inactive) | 58.3 µM (inactive) | 10 µM (inactive) | 41.5 µM (inactive) | 20.8 µM (inactive) | 49 µM (inactive) | > 100 µM (inactive) | 16.9 µM (inactive) | 34.9 µM (inactive) | 30.4 µM (inactive) | 31 µM (inactive) | 90.8 µM (inactive) | – | – | – | – | – |
| Cc1n(CC(=O)c2ccc([N+](=O)[O-])cc2)c2c([n+]1CC(C)C)C(=O)c1ccccc1C2=O | < 0.01 µM (active) | – | < 0.01 µM (active) | – | < 0.0172 µM (active) | – | – | 16.1 µM (inactive) | < 0.02 µM (active) | – | < 0.01 µM (active) | 0.329 µM (active) | < 0.01 µM (active) | – | < 0.015 µM (active) | – | – | – | < 0.01 µM (active) | – |
| COc1ccc(CCn2nccc2C)cc1 | – | > 100 µM (inactive) | > 100 µM (inactive) | > 100 µM (inactive) | > 100 µM (inactive) | > 100 µM (inactive) | 74.1 µM (inactive) | 59.6 µM (inactive) | > 100 µM (inactive) | > 100 µM (inactive) | > 100 µM (inactive) | > 100 µM (inactive) | > 100 µM (inactive) | > 100 µM (inactive) | > 100 µM (inactive) | – | – | – | – | – |
| Clc1ccc(C2ON=C(c3ccccc3)N2C23CC4CC(CC(C4)C2)C3)c(Cl)c1 (stereo unspecified) | > 10 µM (inactive) | > 10 µM (inactive) | > 10 µM (inactive) | > 10 µM (inactive) | > 10 µM (inactive) | > 10 µM (inactive) | > 10 µM (inactive) | > 10 µM (inactive) | > 10 µM (inactive) | > 10 µM (inactive) | > 10 µM (inactive) | > 10 µM (inactive) | > 10 µM (inactive) | > 10 µM (inactive) | > 10 µM (inactive) | > 10 µM (inactive) | – | – | – | – |
| COc1ccc(C(O)CNC(=O)c2ccccc2)cc1 (stereo unspecified) | > 100 µM (inactive) | > 100 µM (inactive) | > 100 µM (inactive) | > 100 µM (inactive) | > 100 µM (inactive) | > 100 µM (inactive) | > 100 µM (inactive) | – | > 100 µM (inactive) | > 100 µM (inactive) | > 100 µM (inactive) | > 100 µM (inactive) | > 100 µM (inactive) | > 100 µM (inactive) | > 100 µM (inactive) | > 100 µM (inactive) | – | – | – | – |
| Cc1ccc(N2Cc3c(ccc4ccccc34)OP2(=S)N2CCCC2)cc1 (stereo unspecified) | > 100 µM (inactive) | – | > 100 µM (inactive) | > 100 µM (inactive) | > 100 µM (inactive) | – | – | 85.7 µM (inactive) | > 100 µM (inactive) | – | > 100 µM (inactive) | > 67.8 µM (inactive) | > 100 µM (inactive) | – | > 100 µM (inactive) | – | – | > 100 µM (inactive) | > 100 µM (inactive) | – |
| COc1ccccc1/C=C1\S/C(=N/Nc2nc(C)c(C(C)=O)s2)NC1=O | – | 25.4 µM (inactive) | 33.3 µM (inactive) | 43.8 µM (inactive) | 43.4 µM (inactive) | 22.8 µM (inactive) | 25.6 µM (inactive) | 37.2 µM (inactive) | 43.3 µM (inactive) | 69.7 µM (inactive) | – | 51.5 µM (inactive) | 25.6 µM (inactive) | 43.6 µM (inactive) | 51.2 µM (inactive) | 29.4 µM (inactive) | – | – | – | – |
